Measurements taken from ChEMBL document CHEMBL1811867, “Psilostachyin, acetylated pseudoguaianolides and their analogues: preparation and evaluation of their anti-inflammatory potential” (2011).

How the values were obtained:
[1] = Antiinflammatory activity in mouse neutrophils assessed as inhibition of LPS-stimulated TNFalpha cytokine expression at 1 ug/ml after 3 hrs by flow cytometeric analysis; assay type: functional; conditions: Neutrophil
[2] = Antiinflammatory activity in mouse neutrophils assessed as inhibition of LPS-stimulated IL1-beta expression at 1 ug/ml after 4-5 hrs by ELISA relative to control; assay type: functional; conditions: Neutrophil
[3] = Antiinflammatory activity in mouse neutrophils assessed as inhibition of LPS-stimulated IL-6 expression at 1 ug/ml after 4-5 hrs by ELISA relative to control; assay type: functional; conditions: Neutrophil
[4] = Antiinflammatory activity in mouse neutrophils assessed as inhibition of LPS-stimulated TNFalpha cytokine expression at 100 ug/ml after 3 hrs by flow cytometeric analysis; assay type: functional; conditions: Neutrophil
[5] = Antiinflammatory activity in mouse neutrophils assessed as inhibition of LPS-stimulated IL1-beta expression after 4-5 hrs by ELISA relative to control; assay type: functional, Neutrophil
[6] = Antiinflammatory activity in mouse neutrophils assessed as inhibition of LPS-stimulated IL-6 expression at 100 ug/ml after 4-5 hrs by ELISA relative to control; assay type: functional; conditions: Neutrophil

SMILES | inhibition at 1 µg/mL [1] [%] | further results
C=C1C(=O)O[C@@H]2[C@H]1CC[C@H](C)[C@]1(OC(C)=O)C=CC(=O)O[C@@]21C | 16.8 | –
C=C1C(=O)O[C@@H]2[C@H]1CC[C@H](C)C1=C[C@@H](OC(C)=O)C(=O)[C@]12C | 2.34 | –
C=C1C(=O)O[C@@H]2[C@H]1CC[C@H](C)[C@]1(O)C=CC(=O)[C@@]21C [PARTHENIN] | -0.39 | –
C=C1C(=O)O[C@@H]2[C@H]1CC[C@H](C)[C@]1(O)C=CC(=O)O[C@@]21C | 41.4 | –
C=C1C(=O)O[C@@H]2[C@H]1CC[C@H](C)[C@]1(OC(=O)CC)C=CC(=O)O[C@@]21C | 26.9 | –
C=C1C(=O)O[C@@H]2[C@H]1CC[C@H](C)C1=C[C@H](OC(=O)CCC)C(=O)[C@]12C | -6.64 | –
C=C1C(=O)O[C@@H]2[C@H]1CC[C@H](C)C1=C[C@@H](OC(=O)CC)C(=O)[C@]12C | -9.37 | –
C=C1C(=O)O[C@@H]2[C@H]1CC[C@H](C)[C@]1(OC(=O)CC)C=CC(=O)[C@@]21C | -17.2 | –
CC1=C2CC[C@H](C)[C@]3(O)CCC(=O)O[C@@]3(C)[C@@H]2OC1=O | 53.1 | inhibition at 1 µg/mL [2]: 40.9%; inhibition at 1 µg/mL [3]: 17.1%
C=C1C(=O)O[C@@H]2[C@H]1CC[C@H](C)C1=C[C@@H](OC(=O)CCC)C(=O)[C@]12C | 32 | –
C=C1C(=O)O[C@@H]2[C@H]1CC[C@H](C)[C@]1(OC(=O)CCC)C=CC(=O)[C@@]21C | 14.1 | –
C=C1C(=O)O[C@@H]2[C@H]1CC[C@H](C)[C@]1(CCC(=O)O1)[C@@]2(C)O [PSILOSTACHYIN A] | 39.5 | –
C=C1C(=O)O[C@@H]2[C@H]1CC[C@H](C)[C@]1(C=CC(=O)O1)[C@@]2(C)O | 31.2 | –
C=C1C(=O)O[C@@H]2[C@H]1CC[C@H](C)[C@]1(O)CCC(=O)[C@@]21C [CORONOPILIN] | -7.03 | –
C[C@H]1CC[C@@H]2[C@@H](OC(=O)[C@@]23CCN=N3)[C@]2(C)OC(=O)C=C[C@@]12O | 59.8 | inhibition at 1 µg/mL [2]: 41.4%; inhibition at 1 µg/mL [3]: 14%
C=C1C(=O)O[C@@H]2[C@H]1CC[C@H](C)[C@]1(OC(=O)CCC)C=CC(=O)O[C@@]21C | 12.5 | –
C=C1C(=O)O[C@@H]2[C@H]1CC[C@H](C)C1=C[C@H](OC(=O)CC)C(=O)[C@]12C | 10.5 | –
C[C@H]1CC[C@@H]2[C@@H](OC(=O)[C@@]23CCN=N3)[C@](C)(O)[C@@]12C=CC(=O)O2 | 49.2 | inhibition at 1 µg/mL [2]: 36%; inhibition at 1 µg/mL [3]: 11.3%
COc1ccc(C2CNC(=O)C2)cc1OC1CCCC1 (centres undefined) [ROLIPRAM] | – | inhibition at 100 µg/mL [4]: 71.5%; inhibition (INH) [5]: 64.27%; inhibition at 100 µg/mL [6]: 36.1%
C=C1C(=O)O[C@@H]2[C@H]1CC[C@H](C)C1=C[C@H](OC(C)=O)C(=O)[C@]12C | 5.46 | –
C=C1C(=O)O[C@@H]2[C@H]1CC[C@H](C)[C@]1(OC(C)=O)C=CC(=O)[C@@]21C | -1.17 | –
